# Results published in EP4007561B1, “PREVENTION AND REDUCTION OF CORNIFICATION DISORDERS AND RELATED COSMETIC AGENTS” (Merck Patent GmbH, priority 2019, dated 2021).
# Values joined by “and” are separate entries in the source; they are usually repeats but may differ in a detail not shown here. Identical values can stand only once.
# Tests used:
# Format in all cases: cell-based, human
# Filaggrin = test: Fluorescence imaging (immunostaining) of protein expression on skin explants ex vivo; settings: ectoine 0.2% w/v, 24 hours prior to UV-A irradiation (365 nm, 480J/cm^2, 40 minutes); Figure 2
# Experimental: (§1) To evidence changes at the expression level of a selected pool of proteins on skin explants (ex vivo), treated or not with ectoine 0.2% (source Merck KGaA. Darmstadt, Germany) and exposed or not to UV-A irradiation: At day 0 (D0), the skin explants from a donor (phototype III, ref. EXP001100F022) are kept alive in calcium-free DMEM (Dulbecco's modified Eagle medium), with 10% FCS (Fetal calf serum), at 37°C and humid atmosphere, supplemented with 5% CO2. On day 1 (D1), ectoine 0.2% w/v) is obtained by dilution in H2O. The experimental groups are incubated for 24 hours with the active prior to irradiation.
# (§2) On day 2 (D2), a stress induced by irradiation with UV-A (LED source, peak at 365 nm at a 480J/cm^2 during 40 minutes) is applied to the explants.
# (§3) Skin explants are previously treated or not with ectoine and irradiated or not with UV-A, cryo-preserved in OCT (an embedding resin (Shandon Cryomatrix; Thermo Scientific, Reference 6769006)), flash-frozen in isopetan/liquid nitrogen and stored at -80 °C.
# (§4) Tissue sections of 5 µm are cut by using a cryotome, air-dried at room temperature (RT) for 15 minutes and fixed with a mix of 95% ethanol/5% acetic acid for 5 minutes. Fixed tissues are then saturated with 5% BSA (bovine serum albumin) in PBS (Phosphate Buffered Saline; 1X, pH 7.4) at RT. […]
# LAMP2A = test: as above; settings: ectoine 0.2% w/v; basal conditions (without UV-A); Figure 3
# Experimental: as §1, §2, §3, §4
# skin explants = test: Protein oxidation (carbonylation) by differential in-gel electrophoresis proteomics, unidentified spots and overall spot pattern; settings: for Average normalized volume (oxidation level): UV-A + Ectoine 0.2%, UV-A 365 nm, 480J/cm2, 40 min
# Experimental: To assess and quantify protein oxidation (carbonylation) by differential in-gel electrophoresis proteomics approach evidencing differentially oxidized protein spots upon UV-A (365 nm) irradiation on skin explants in the presence or absence of ectoine (0,2%) (source Merck KGaA, Darmstadt, Germany).
# During the study human explants are irradiated under UVA (LED source; sources and chamber manufactured for custom needs by UWAVE;France, peak at 365nm at a 480J/cm2 dose during 40 min). A solution of N-acetylcysteine (Reference A7250, Sigma-Aldrich) is used as positive control of protection. Just after irradiation, explants are snap-frozen and proteins extracted for analyses.
# Protein extraction from explants is performed using a commercial kit (Total Protein Extraction Kit, Merck KGaA) protocol for skin explants. Extracted proteins are quantified by the Bradford method and split into equal amounts for analyses. The samples are analyzed for carbonylated proteins after they are labeled with fluorescent probes functionalized to selectively react with carbonyl groups. The fluorescent labeling of carbonyls is obtained by the reaction with amine-N-oxyl functionalized fluorophore (custom synthetized) and formation of a stable covalent bond.
# Thus, the samples are labeled with two different fluorescent dyes characterized by different excitation and emission wavelength peaks: CF®555 (Source :Biotium) is a red fluorescent dye spectrally similar to Cy3® and Alexa Fluor® 555 (λex547nm/λem572nm) and CF®647 (Source: Biotium) CF®647is a far-red fluorescent dye spectrally similar to Cy®5 and Alexa Fluor® 647 (λex639nm/λem668nm). This approach allows to load two distinct labeled samples in the same bi-dimensional electrophoresis gel and to analyze them independently.
# Moreover, 50 µg of proteins of each sample are pooled and labeled a third fluorescent probe CF®488 (Source: Biotium) (λex483nm/λem508nm). CF®488 is a green fluorescent dye spectrally similar to Alexa Fluor® 488. CF®488 is and used as Internal Standard (IS) for inter-gel normalization. After specific fluorescent labeling, carbonylated proteins are separated by bi-dimensional electrophoresis and the fluorescence images are obtained for each specifically labeled sample.
# The first dimension of protein separation (isoelectric focusing) is performed using gel-strips with nonlinear pH 3 to 11 while the second step of electrophoresis separation is conducted by SDS-PAGE using 4%-20% w/v gradient polyacrylamide gels. The digital acquisition of gel images is performed by using the «Ettan DIGE imager» system (GE Healthcare). Data treatment is performed with the software «Progenesis SameSpots» (Nonlinear Dynamics, UK).
# Carbonylated proteins are presented as superposed images of two independent fluorescent signals (in green or red) and the coincident proteins with equivalent intensity result in yellow spots by superposition of the two dye colors used for their labeling (superposition of green and red colors). The carbonylated proteins that are present in a different level in the two samples on gel are visualized as red or green spots depending by the experimental group as independent labeling of each sample.
# More than 200 spots are detected per sample, with an increase in number and intensity in the samples of the irradiated group (UV-A). These spots are localized between 37 kDa and 75 kDa. The fluorescence signal of each spot is normalized over the internal standard spot signal for each gel. The alignment of spots from different gels and the analysis of variance of their carbonylation levels in different samples and in different groups are performed by using the software Progenesis Samespots.
smiles,measurement,setting,value
"CC1=N[C@H](C(=O)O)CCN1 [Ectoine, (S)-1,4,5,6-tetrahydro-2-methyl-4-pyrimidincarboxylic acid]",Filaggrin expression level,Filaggrin,prevents this decrease of Filaggrin
same,LAMP2A expression,LAMP2A,increases LAMP2A expression
same,Average normalized volume (oxidation level),"skin explants; Spot 100 (protein not identified), n=4",→ 1.129
same,Average normalized volume (oxidation level),"skin explants; Spot 203 (protein not identified), n=4",→ 1.062
same,Average normalized volume (oxidation level),"skin explants; Spot 230 (protein not identified), n=4",→ 1.433
same,level of oxidation of protein spots in the absence of irradiation,"skin explants; basal conditions, no UV-A, spots different from those protected from UV-A stress (except spot 100)",decreases the level of oxidation of ten protein spots
same,"protein carbonylation after ectoine treatment, spots 100, 230, 203","skin explants; ectoine 0.2%, UV-A irradiation, n=4",carbonylation is not reduced
same,protection of protein spots from UV-A induced oxidation (carbonylation),"skin explants; ectoine 0.2%, of 8 spots increased by UV-A, spots 186, 133, 184, 185, 206, n=4",five spots are detected as protected and 5 proteins exhibit reduced protein carbonylation and prevents protein carbonylation significantly
